From patent US20210255193A1, “LYSINE REACTIVE PROBES AND USES THEREOF” (The Scripps Research Institute, priority 2017, published 2021)

Columns and labels:
Assay in all cases: competitive isoTOP-ABPP
Type in all cases: binding
[1] = molecular target: T1, CNOT4 CCR4-NOT transcription complex subunit 4 (Homo sapiens, UniProt O95628); details: 50 uM, in vitro; for R value (DMSO/fragment) for probe 1 labeling: O95628_K134; for R value (DMSO/fragment) for probe 1 labeling / isoTOP-ABPP reactivity ratio at lysine O95628_K134: 231 sol; for isoTOP-ABPP ratio (R) at liganded lysine O95628_K134: sol, 231
T1 construct: isoTOP-ABPP experiments performed in cell lysates (in vitro); endogenous in cells; host or cells: MDA-MB-231 soluble lysate
T1 sequence (O95628 1-575): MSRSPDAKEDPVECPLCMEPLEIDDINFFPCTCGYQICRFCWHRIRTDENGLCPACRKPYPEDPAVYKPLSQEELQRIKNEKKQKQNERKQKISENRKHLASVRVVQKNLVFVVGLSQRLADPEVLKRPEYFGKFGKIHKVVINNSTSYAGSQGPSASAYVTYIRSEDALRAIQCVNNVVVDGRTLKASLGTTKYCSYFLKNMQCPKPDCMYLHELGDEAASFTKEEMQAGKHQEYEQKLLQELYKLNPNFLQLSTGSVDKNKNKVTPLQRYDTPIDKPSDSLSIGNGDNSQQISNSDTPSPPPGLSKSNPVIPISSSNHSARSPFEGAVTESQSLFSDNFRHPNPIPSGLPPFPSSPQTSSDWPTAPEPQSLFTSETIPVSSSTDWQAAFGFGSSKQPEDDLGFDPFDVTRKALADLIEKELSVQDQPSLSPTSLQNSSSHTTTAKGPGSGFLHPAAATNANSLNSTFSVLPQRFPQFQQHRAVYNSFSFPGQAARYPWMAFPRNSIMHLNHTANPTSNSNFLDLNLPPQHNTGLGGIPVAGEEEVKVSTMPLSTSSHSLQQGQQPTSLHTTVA
Method in brief: (§1)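 Competition format: fragment (50 μM activated ester, 100 μM guanidinylating agent) versus vehicle in lysate, then lysine probe STP-alkyne at 0.1 mM for 1 h. Quantitation by light/heavy TEV-tag MS1 peak areas, reported as R.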

LMNA Prelamin-A/C = molecular target: T2, LMNA Prelamin-A/C (Homo sapiens, UniProt P02545); details: for R value (DMSO/fragment) for probe 1 labeling: P02545_K135; for R value (DMSO/fragment) for probe 1 labeling / isoTOP-ABPP reactivity ratio at lysine P02545_K135 / isoTOP-ABPP ratio (R) at liganded lysine P02545_K135: 50 uM, in vitro; for R value (DMSO/fragment) for probe 1 labeling / isoTOP-ABPP reactivity ratio at lysine P02545_K135: 231 sol; for isoTOP-ABPP ratio (R) at liganded lysine P02545_K135: sol, 231
T2 construct: isoTOP-ABPP experiments performed in cell lysates (in vitro); endogenous in cells; host or cells: MDA-MB-231 soluble lysate
T2 sequence (P02545 1-664): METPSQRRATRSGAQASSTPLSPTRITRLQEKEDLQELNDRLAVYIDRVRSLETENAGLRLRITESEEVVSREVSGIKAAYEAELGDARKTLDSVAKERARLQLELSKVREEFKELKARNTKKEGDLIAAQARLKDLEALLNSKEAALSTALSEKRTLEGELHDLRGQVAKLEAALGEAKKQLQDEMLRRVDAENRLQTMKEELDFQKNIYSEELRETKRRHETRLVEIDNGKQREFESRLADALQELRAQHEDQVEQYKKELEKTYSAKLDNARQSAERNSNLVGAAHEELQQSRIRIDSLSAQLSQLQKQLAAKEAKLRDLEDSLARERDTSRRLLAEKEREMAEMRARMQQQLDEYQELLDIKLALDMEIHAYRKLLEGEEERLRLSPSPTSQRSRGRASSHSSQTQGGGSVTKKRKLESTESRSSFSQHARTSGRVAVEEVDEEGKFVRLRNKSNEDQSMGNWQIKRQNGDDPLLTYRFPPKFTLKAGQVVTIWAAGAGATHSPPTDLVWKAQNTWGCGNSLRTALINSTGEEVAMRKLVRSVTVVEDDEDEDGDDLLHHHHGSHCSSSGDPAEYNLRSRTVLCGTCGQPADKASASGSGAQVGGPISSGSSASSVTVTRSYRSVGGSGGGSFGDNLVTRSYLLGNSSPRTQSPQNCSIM
Method in brief: as §1

[2] = molecular target: T3, RQCD1 Cell differentiation protein RCD1 homolog (Homo sapiens, UniProt Q92600); details: 50 uM, in vitro; for R value (DMSO/fragment) for probe 1 labeling: Q92600_K230; for R value (DMSO/fragment) for probe 1 labeling / isoTOP-ABPP reactivity ratio at lysine Q92600_K230: 231 sol; for isoTOP-ABPP ratio (R) at liganded lysine Q92600_K230: sol, 231
T3 construct: isoTOP-ABPP experiments performed in cell lysates (in vitro); endogenous in cells; host or cells: soluble proteome of human cancer cell lines (MDA-MB-231; Ramos and Jurkat also prepared)
T3 sequence (Q92600 whole entry, the tested form may be a part): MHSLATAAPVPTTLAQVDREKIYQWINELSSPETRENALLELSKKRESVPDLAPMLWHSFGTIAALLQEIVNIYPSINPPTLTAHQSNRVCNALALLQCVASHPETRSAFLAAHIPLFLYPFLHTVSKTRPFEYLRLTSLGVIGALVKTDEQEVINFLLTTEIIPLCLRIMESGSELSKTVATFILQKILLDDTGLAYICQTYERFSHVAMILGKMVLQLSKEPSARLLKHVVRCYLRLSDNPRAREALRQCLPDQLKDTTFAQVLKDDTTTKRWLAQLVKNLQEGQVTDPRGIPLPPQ
Method in brief: as §1

O=C(CCc1cn(-c2ccccc2)nc1-c1ccccc1)Oc1c(F)c(F)c(F)c(F)c1F [fragment 19, Pentafluorophenyl 3-(1,3-diphenyl-1H-pyrazol-4-yl)propanoate]
R value (DMSO/fragment) for probe 1 labeling [1]: 1.1 | R value (DMSO/fragment) for probe 1 labeling (LMNA Prelamin-A/C): 1.1 | R value (DMSO/fragment) for probe 1 labeling [2]: 1.0

O=C(Oc1c(F)c(F)c(F)c(F)c1F)C(c1ccccc1)c1ccccc1 [fragment 20, Pentafluorophenyl 2,2-diphenylacetate]
R value (DMSO/fragment) for probe 1 labeling [1]: 0.9 | R value (DMSO/fragment) for probe 1 labeling (LMNA Prelamin-A/C): 1.0 | R value (DMSO/fragment) for probe 1 labeling [2]: 0.9

O=C(Oc1c(F)c(F)c(F)c(F)c1F)c1cc(C(F)(F)F)cc(C(F)(F)F)c1 [fragment 21, Pentafluorophenyl 3,5-bis(trifluoromethyl)benzoate]
R value (DMSO/fragment) for probe 1 labeling [1]: 1.2 | R value (DMSO/fragment) for probe 1 labeling (LMNA Prelamin-A/C): 1.0 | R value (DMSO/fragment) for probe 1 labeling [2]: 0.9

Cn1cc(CC(=O)Oc2c(F)c(F)c(F)c(F)c2F)c2ccccc21 [fragment 22, Pentafluorophenyl 2-(1-methyl-1H-indol-3-yl)acetate]
R value (DMSO/fragment) for probe 1 labeling [1]: 1.4 | R value (DMSO/fragment) for probe 1 labeling (LMNA Prelamin-A/C): 1.0 | R value (DMSO/fragment) for probe 1 labeling [2]: 1.0

COc1cc(CCC(=O)Oc2c(F)c(F)c(F)c(F)c2F)cc(OC)c1OC [fragment 23, Pentafluorophenyl 3-(3,4,5-trimethoxyphenyl)propanoate]
R value (DMSO/fragment) for probe 1 labeling [1]: 1.2 | R value (DMSO/fragment) for probe 1 labeling (LMNA Prelamin-A/C): 0.9 | R value (DMSO/fragment) for probe 1 labeling [2]: 1.1

O=C(Oc1c(F)c(F)c(F)c(F)c1F)C1CCN(C(=O)OCc2ccccc2)CC1 [fragment 24, 1-Benzyl 4-(pentafluorophenyl) piperidine-1,4-dicarboxylate]
isoTOP-ABPP reactivity ratio at lysine O95628_K134 [1]: 1.0

O=C(Oc1c(F)c(F)c(F)c(F)c1F)c1ccc2ccccc2n1 [fragment 25, Pentafluorophenyl quinoline-2-carboxylate]
isoTOP-ABPP reactivity ratio at lysine O95628_K134 [1]: 1.8 | isoTOP-ABPP reactivity ratio at lysine P02545_K135 (LMNA Prelamin-A/C): 0.9

O=C(CCc1coc2cc(F)ccc2c1=O)Oc1c(F)c(F)c(F)c(F)c1F [fragment 26, Pentafluorophenyl 3-(7-fluoro-4-oxo-4H-chromen-3-yl)propanoate]
isoTOP-ABPP reactivity ratio at lysine O95628_K134 [1]: 1.1 | isoTOP-ABPP reactivity ratio at lysine Q92600_K230 [2]: 1.2

O=C(CN1C(=O)c2ccccc2C1=O)Oc1c(F)c(F)c(F)c(F)c1F [fragment 27, Pentafluorophenyl 2-(1,3-dioxoisoindolin-2-yl)acetate]
isoTOP-ABPP reactivity ratio at lysine O95628_K134 [1]: 1.2

CCn1cc(C(=O)Oc2c(F)c(F)c(F)c(F)c2F)c(=O)c2ccc(C)nc21 [fragment 28, Pentafluorophenyl 1-ethyl-7-methyl-4-oxo-1,4-dihydro-1,8-naphthyridine-3-carboxylate]
isoTOP-ABPP reactivity ratio at lysine O95628_K134 [1]: 1.0

O=C(CCc1cn(-c2ccccc2)nc1-c1ccccc1)Oc1ccc([N+](=O)[O-])cc1[N+](=O)[O-] [fragment 29, 2,4-Dinitrophenyl 3-(1,3-diphenyl-1H-pyrazol-4-yl)propanoate]
isoTOP-ABPP reactivity ratio at lysine O95628_K134 [1]: 1.1 | isoTOP-ABPP reactivity ratio at lysine P02545_K135 (LMNA Prelamin-A/C): 1.0 | isoTOP-ABPP reactivity ratio at lysine Q92600_K230 [2]: 1.0

O=C(Oc1ccc([N+](=O)[O-])cc1[N+](=O)[O-])C(c1ccccc1)c1ccccc1 [fragment 30, 2,4-Dinitrophenyl 2,2-diphenylacetate]
isoTOP-ABPP reactivity ratio at lysine O95628_K134 [1]: 1.2 | isoTOP-ABPP reactivity ratio at lysine P02545_K135 (LMNA Prelamin-A/C): 20.0 | isoTOP-ABPP reactivity ratio at lysine Q92600_K230 [2]: 1.6

O=C(Oc1ccc([N+](=O)[O-])cc1[N+](=O)[O-])c1cc(C(F)(F)F)cc(C(F)(F)F)c1 [fragment 31, 2,4-Dinitrophenyl 3,5-bis(trifluoromethyl)benzoate]
isoTOP-ABPP reactivity ratio at lysine O95628_K134 [1]: 4.3 | isoTOP-ABPP reactivity ratio at lysine P02545_K135 (LMNA Prelamin-A/C): 1.3 | isoTOP-ABPP reactivity ratio at lysine Q92600_K230 [2]: 1.0

Cn1cc(CC(=O)Oc2ccc([N+](=O)[O-])cc2[N+](=O)[O-])c2ccccc21 [fragment 32, 2,4-Dinitrophenyl 2-(1-methyl-1H-indol-3-yl)acetate]
isoTOP-ABPP reactivity ratio at lysine O95628_K134 [1]: 2.1 | isoTOP-ABPP reactivity ratio at lysine P02545_K135 (LMNA Prelamin-A/C): 20.0 | isoTOP-ABPP reactivity ratio at lysine Q92600_K230 [2]: 10.2

COc1cc(CCC(=O)Oc2ccc([N+](=O)[O-])cc2[N+](=O)[O-])cc(OC)c1OC [fragment 33, 2,4-Dinitrophenyl 3-(3,4,5-trimethoxyphenyl)propanoate]
isoTOP-ABPP reactivity ratio at lysine O95628_K134 [1]: 1.4 | isoTOP-ABPP reactivity ratio at lysine P02545_K135 (LMNA Prelamin-A/C): 0.7 | isoTOP-ABPP reactivity ratio at lysine Q92600_K230 [2]: 2.5

O=C(Oc1ccc([N+](=O)[O-])cc1[N+](=O)[O-])C1CCN(C(=O)OCc2ccccc2)CC1 [fragment 34, 1-Benzyl 4-(2,4-dinitrophenyl) piperidine-1,4-dicarboxylate]
isoTOP-ABPP ratio (R) at liganded lysine O95628_K134 [1]: 1.1 | isoTOP-ABPP ratio (R) at liganded lysine P02545_K135 (LMNA Prelamin-A/C): 1.2 | isoTOP-ABPP ratio (R) at liganded lysine Q92600_K230 [2]: 0.8

O=C(Oc1ccc([N+](=O)[O-])cc1[N+](=O)[O-])c1ccc2ccccc2n1 [fragment 35, 2,4-Dinitrophenyl quinoline-2-carboxylate]
isoTOP-ABPP ratio (R) at liganded lysine O95628_K134 [1]: 1.3 | isoTOP-ABPP ratio (R) at liganded lysine P02545_K135 (LMNA Prelamin-A/C): 0.7 | isoTOP-ABPP ratio (R) at liganded lysine Q92600_K230 [2]: 0.9

O=C(CCc1coc2cc(F)ccc2c1=O)Oc1ccc([N+](=O)[O-])cc1[N+](=O)[O-] [fragment 36, 2,4-Dinitrophenyl 3-(7-fluoro-4-oxo-4H-chromen-3-yl)propanoate]
isoTOP-ABPP ratio (R) at liganded lysine P02545_K135 (LMNA Prelamin-A/C): 0.8 | isoTOP-ABPP ratio (R) at liganded lysine Q92600_K230 [2]: 2.5

O=C(Oc1ccc([N+](=O)[O-])cc1[N+](=O)[O-])c1ccc(-c2ccccc2)cc1 [fragment 37, 2,4-Dinitrophenyl [1,1′-biphenyl]-4-carboxylate]
isoTOP-ABPP ratio (R) at liganded lysine O95628_K134 [1]: 1.0 | isoTOP-ABPP ratio (R) at liganded lysine P02545_K135 (LMNA Prelamin-A/C): 0.9 | isoTOP-ABPP ratio (R) at liganded lysine Q92600_K230 [2]: 0.8

O=C(CC12CC3CC(CC(C3)C1)C2)Oc1ccc([N+](=O)[O-])cc1[N+](=O)[O-] [fragment 38, 2,4-Dinitrophenyl 2-(adamantan-1-yl)acetate]
isoTOP-ABPP ratio (R) at liganded lysine O95628_K134 [1]: 1.2 | isoTOP-ABPP ratio (R) at liganded lysine P02545_K135 (LMNA Prelamin-A/C): 0.8 | isoTOP-ABPP ratio (R) at liganded lysine Q92600_K230 [2]: 0.9

O=C(Oc1ccc([N+](=O)[O-])cc1[N+](=O)[O-])c1ccc(Oc2ccccc2)cc1 [fragment 39, 2,4-Dinitrophenyl 4-phenoxybenzoate]
isoTOP-ABPP ratio (R) at liganded lysine O95628_K134 [1]: 1.0 | isoTOP-ABPP ratio (R) at liganded lysine P02545_K135 (LMNA Prelamin-A/C): 1.0 | isoTOP-ABPP ratio (R) at liganded lysine Q92600_K230 [2]: 0.8

O=C(Oc1ccc([N+](=O)[O-])cc1[N+](=O)[O-])c1ccccc1Nc1cccc(C(F)(F)F)c1 [fragment 40, 2,4-Dinitrophenyl 2-((3-(trifluoromethyl)phenyl)amino)benzoate]
isoTOP-ABPP ratio (R) at liganded lysine O95628_K134 [1]: 1.1 | isoTOP-ABPP ratio (R) at liganded lysine P02545_K135 (LMNA Prelamin-A/C): 1.2 | isoTOP-ABPP ratio (R) at liganded lysine Q92600_K230 [2]: 0.9

CC(C)(C)OC(=O)NCCCC(=O)Oc1ccc([N+](=O)[O-])cc1[N+](=O)[O-] [fragment 41, 2,4-Dinitrophenyl 4-((tert-butoxycarbonyl)amino)butanoate]
isoTOP-ABPP ratio (R) at liganded lysine O95628_K134 [1]: 1.3 | isoTOP-ABPP ratio (R) at liganded lysine P02545_K135 (LMNA Prelamin-A/C): 1.1 | isoTOP-ABPP ratio (R) at liganded lysine Q92600_K230 [2]: 2.6

O=C(Oc1c(F)c(F)cc(F)c1F)c1cc(C(F)(F)F)cc(C(F)(F)F)c1 [fragment 48, 2,3,5,6-Tetrafluorophenyl 3,5-bis(trifluoromethyl)benzoate]
isoTOP-ABPP ratio, lysine P02545_K135 (LMNA Prelamin-A/C; 50 uM_231_sol_in vitro): 1.0
